# Reference: ChEMBL document CHEMBL5120932, “Discovery and Optimization of Seven-Membered Lactam-Based Compounds to Phenocopy the Inhibition of the Aurora Kinase B” (ACS Med Chem Lett, 2022)
# Test: Induction of mitotic arrest in human RPE cells over expressing H2B-GFP-fused MYC assessed as minimum effective concentration for polyploidy measured after 24 to 72 hrs by fluorescence microscopy
# Type: functional
# Details: time 24-72 hrs, read-out: MEC
row,Compound,minimal effective concentration [µM]
1,COC(=O)C1=C(O)c2ccccc2N(Cc2cccc(C)c2)C(=O)C1,40
2,COC(=O)C1=C(O)c2ccccc2N(Cc2cccc(OC)c2)C(=O)C1,20
3,COC(=O)C1=C(O)c2ccccc2N(Cc2ccc(F)cc2)C(=O)C1,40
4,COC(=O)C1=C(O)c2ccccc2N(Cc2ccc(C#N)cc2)C(=O)C1,40
5,COC(=O)C1=C(O)c2ccccc2N(Cc2ccc(C(C)(C)C)cc2)C(=O)C1,40
6,COC(=O)C1=C(O)c2cc(F)ccc2N(Cc2ccc(C)c(F)c2)C(=O)C1,0.078
7,COC(=O)C1=C(O)c2ccccc2N(Cc2ccccc2)C(=O)C1,40
8,COC(=O)C1=C(O)c2ccccc2N(Cc2ccc(C)c(Cl)c2)C(=O)C1,5
9,COC(=O)C1=C(O)c2ccccc2N(Cc2ccc(C(C)C)cc2)C(=O)C1,20
10,COC(=O)C1=C(O)c2ccccc2N(Cc2cccc(F)c2)C(=O)C1,40
11,COC(=O)C1=C(O)c2ccccc2N(Cc2ccc(C(F)(F)F)cc2)C(=O)C1,10
12,COC(=O)C1=C(O)c2ccccc2N(Cc2ccc(C)c(C)c2)C(=O)C1,20
13,COC(=O)C1=C(O)c2ccccc2N(Cc2ccc(C)cc2C)C(=O)C1,1.25
14,COC(=O)C1=C(O)c2cc(OC)c(OC)cc2N(Cc2ccc(C)c(F)c2)C(=O)C1,0.312

# Test: Induction of mitotic arrest in human RPE cells over expressing H2B-GFP-fused MYC assessed as increase in polyploidy at 40 uM measured after 24 to 72 hrs by fluorescence microscopy
# Type: functional
# Details: time 24-72 hrs
row,Compound,Activity [%]
1,COC(=O)C1=C(O)c2ccccc2N(Cc2cccc(C)c2)C(=O)C1,10
2,COC(=O)C1=C(O)c2ccccc2N(Cc2cccc(OC)c2)C(=O)C1,20
3,COC(=O)C1=C(O)c2ccccc2N(Cc2ccc(F)cc2)C(=O)C1,50
4,COC(=O)C1=C(O)c2ccccc2N(Cc2ccc(C#N)cc2)C(=O)C1,10
5,COC(=O)C1=C(O)c2ccccc2N(Cc2ccc(C(C)(C)C)cc2)C(=O)C1,5
6,COC(=O)C1=C(O)c2cc(F)ccc2N(Cc2ccc(C)c(F)c2)C(=O)C1,40
7,COC(=O)C1=C(O)c2ccccc2N(Cc2ccccc2)C(=O)C1,50
8,COC(=O)C1=C(O)c2ccccc2N(Cc2ccc(C)c(Cl)c2)C(=O)C1,100
9,COC(=O)C1=C(O)c2ccccc2N(Cc2ccc(C(C)C)cc2)C(=O)C1,70
10,COC(=O)C1=C(O)c2ccccc2N(Cc2cccc(F)c2)C(=O)C1,40
11,COC(=O)C1=C(O)c2ccccc2N(Cc2ccc(C(F)(F)F)cc2)C(=O)C1,30
12,COC(=O)C1=C(O)c2ccccc2N(Cc2ccc(C)c(C)c2)C(=O)C1,40
13,COC(=O)C1=C(O)c2ccccc2N(Cc2ccc(C)cc2C)C(=O)C1,100
14,COC(=O)C1=C(O)c2cc(OC)c(OC)cc2N(Cc2ccc(C)c(F)c2)C(=O)C1,90
